Results on 29 compounds are retold here after PubChem BioAssay (NCI).

Test in all cases: growth of human tumour cells (NCI), 48 h
Assay [1] deals with NCI-H522 lung.
Assay [2] deals with NCI/ADR-RES ovarian.
Assay [3] has as its system OVCAR-8 ovarian.
Assay [4] deals with UACC-257 melanoma.
Assay [5] concerns SF-295 CNS.
For assay [6], the system named is BT-549 breast.
For assay [7], the system named is MALME-3M melanoma.
In assay [8] the test system is LOX IMVI melanoma.
Assay [9] relates to DU-145 prostate.

Molecules are shown by their SMILES.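 The compound was tested at five concentrations on cells cultured in 96-well plates, with a 48-hour exposure period. GI50 is the concentration that inhibits growth by half. TGI is the concentration that stops growth completely.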 Where a SMILES comes first, the peptide text is derived from it. The star is where a group is joined. Fmoc = O=C(OCC1c2ccccc2-c2ccccc21)*; Boc = CC(C)(C)OC(=O)*

On to `COc1ccc(/C=C2\CCC/C(=C\c3ccc(O)c(CN4CCCCC4)c3)C2=O)cc1`, for which the TGI in assay [1] turned out to be 19.1 µM; in [2], 32.8 µM; in assay [3], 13.6 µM; in assay [4], 40.4 µM; in assay [5], 36.4 µM; in assay [6], 37.7 µM. The figures for the TGI in assay [7], in assay [8] and in assay [9] were 49 µM, 26.1 µM and 36.9 µM, respectively.
Take `O=C(c1ccc(Cl)cc1)N(C(=S)OCc1ccccn1)c1ccccc1`: the TGI in assay [2], in assay [3], in assay [4], in assay [5], in assay [6] and in assay [7] was more than 100 µM throughout. The TGI in assay [8] and in assay [9] was more than 100 µM in each case.
For the compound `COc1ccc2cc(-c3nc(N)nc(N4N=C(C)CC4(C)C)n3)c(=N)oc2c1`, the TGI in [1] is 27.8 µM; in assay [2] it was more than 100 µM; in [3], 49.8 µM; in assay [4], 95.7 µM; in assay [5], 33.2 µM; in assay [6] it was 48.1 µM. In addition, the TGI came to 32.7 µM in assay [7] and 32.6 µM in [9].
With `COc1cc(-c2[o+]c3cc(O)cc(O)c3cc2O)cc(O)c1O`, the TGI in [1], in assay [2], in assay [3], in assay [4], in [5] and in assay [6] was more than 100 µM throughout. Moreover, the TGI in [7], in [8] and in assay [9] was more than 100 µM in each case.
Regarding `Nc1nc2c(ncn2Cc2ccccc2CO)c(=O)[nH]1`, the TGI in assay [1], in [2], in assay [3], in assay [4], in assay [5] and in [6] was more than 100 µM in each case. For the same compound, the TGI in assay [7], in [8] and in assay [9] was more than 100 µM throughout.
As to `c1ccc2c(c1)CCc1[nH]c3c(c1-2)-c1ccccc1CC3`, the TGI in assay [1], in [2], in assay [3], in [4], in assay [5] and in assay [6] was more than 100 µM throughout. For the same compound, the TGI in [7], in [8] and in [9] was more than 100 µM throughout.
Take `CC(C)(C)OC(=O)NCCCCC(NC(=O)C(Cc1c[nH]c2ccccc12)NC(=O)OCC1c2ccccc2-c2ccccc21)C(=O)N1CCCC1C(=O)NCC(N)=O` (stereo not given) (Fmoc-WK(Boc)PG-NH2; configuration not given here): the TGI in assay [1], in assay [2], in [3], in [4], in assay [5] and in assay [6] was more than 100 µM in each case. Also, the TGI in assay [7], in assay [8] and in assay [9] was more than 100 µM each time.
For `O=C1C=C(OCCCCl)C(=O)c2c(O)ccc(O)c21`, the TGI was 4.26 µM in assay [1]; 7.3 µM in [2]; 7.59 µM in [3]; 0.358 µM in assay [4]; 3.2 µM in assay [5]; 2.56 µM in [6]. Moreover, the TGI in [7] turned out to be 0.322 µM; in assay [8] it was 0.659 µM; in assay [9], 0.863 µM.
On to `C=C(CN1CC2C[C@](C(=O)OC)(c3cc4ccccc4[nH]3)C1C(OC)C2OC)S(=O)(=O)c1ccccc1` (stereo not given in full), for which the TGI in [1] turned out to be 3.79 µM; in assay [2] it was 20.7 µM; in [3], 12.6 µM; in [4] it was 8.5 µM; in assay [5], 14.5 µM; in assay [6], 12.4 µM. The TGI in assay [7] amounted to 7.38 µM; in [8] it was 3.54 µM; in assay [9], 14.1 µM.
Regarding `Cc1cccc(-c2cc(=O)c3c(C)cc(C)nc3[nH]2)c1`, the TGI in assay [1] was 2.85 µM; in [2], 4.68 µM; in [3], more than 100 µM; in [4], more than 100 µM; in assay [5] it was more than 63.8 µM; in assay [6], 30.2 µM. Further, the TGI in [7], in assay [8] and in assay [9] was more than 100 µM throughout.
In the case of `FC(F)(Sc1ncc[nH]1)c1nc2ccccc2o1`, the TGI in assay [1], in assay [2], in assay [3], in assay [4], in [5] and in [6] was more than 100 µM in each case. Besides, the TGI in assay [7] and in assay [9] was more than 100 µM in each case.
Take `CC(C)Cc1cc2c(cc1O)CCC1C2CC[C@@]2(C)C1CC[C@@H]2O` (stereo not given in full): the TGI stood at 26 µM in assay [1]; 20.9 µM in assay [2]; 22.3 µM in assay [3]; 35.1 µM in assay [4]; 20.2 µM in [5]; 14.2 µM in assay [6]. In addition, the values for the TGI in assay [7], in assay [8] and in assay [9] were 37 µM, 18.2 µM and 23.1 µM, respectively.
Take `C[N+](C)(C)CC(=O)N/N=C/c1ccncc1`: the TGI in assay [1], in assay [2], in assay [3], in assay [4], in [5] and in [6] was more than 100 µM throughout. Besides, the TGI in [7], in [8] and in assay [9] was more than 100 µM in each case.
`c1ccc2c(c1)NC1(N3CCCCC3)CCCCC21` (stereo not given): the TGI in assay [1], in assay [2], in assay [3], in assay [4], in assay [5] and in [6] was more than 100 µM in each case. For the same compound, the TGI in assay [7], in assay [8] and in assay [9] was more than 100 µM throughout.
Take `CN1CN(c2ccccc2)C2(CCN(CCC3COc4ccccc4O3)CC2)C1=O` (stereo not given): the TGI in assay [1] was 33.4 µM; in [2] it was 49.6 µM; in assay [3] it was more than 100 µM; in assay [4], 31 µM; in assay [5], 37.2 µM; in [6], 42.5 µM. Also, the TGI is 38.5 µM in assay [7], 50.4 µM in [8] and more than 100 µM in assay [9].
`O=C(CCCl)NNC1=NCCCN1`: the TGI in assay [1], in assay [2], in [3], in assay [4], in assay [5] and in assay [6] was more than 100 µM each time. In addition, the TGI in assay [7], in assay [8] and in [9] was more than 100 µM throughout.
On to `COC(=O)/C=C/C1(O)C=CC(=O)C=C1`, for which the TGI is 0.598 µM in assay [1]; more than 68.2 µM in assay [2]; more than 100 µM in assay [3]; 13.6 µM in [4]; 38.3 µM in [5]; 22.9 µM in assay [6]. Besides, the TGI was 8.26 µM in [7], 4.74 µM in [8] and 9.57 µM in [9].
In the case of `C[C@@H](NC(=O)c1ccc(CNC(=O)/C=C/c2cccc(Oc3ccccc3)c2)cc1)c1ccccc1`, the TGI in assay [1], in [2], in assay [3], in assay [4], in [5] and in [6] was more than 100 µM in each case. In addition, the TGI in assay [7], in [8] and in assay [9] was more than 100 µM throughout.
Regarding `O=c1cn[nH]c(=S)n1/N=C/c1c[nH]c2ccccc12`, the TGI was more than 100 µM in [1]; more than 100 µM in assay [2]; 93.9 µM in [3]; more than 100 µM in [4]; more than 100 µM in assay [5]; more than 100 µM in [6]. The TGI in assay [7] is more than 100 µM; in assay [8], 93.2 µM; in assay [9] it was more than 100 µM.
Take `Cc1ccc2nc(C=Nc3ccc(Cl)cc3)cc(C)c2c1`: the TGI in assay [1] was determined as 26.6 µM; in [2], 32.1 µM; in assay [3], 23.3 µM; in assay [4], 36.5 µM; in assay [5], 19.3 µM; in assay [6], 30 µM. In addition, the TGI in assay [7] is more than 64.9 µM; in assay [8] it was 20.1 µM; in assay [9], more than 100 µM.
Take `CSc1ncc2c(n1)sc1c(=O)n(-c3ccccc3)cnc12`: the TGI in [1], in [2], in assay [3], in assay [4], in assay [5] and in assay [6] was more than 100 µM each time. Further, the TGI in [7], in [8] and in assay [9] was more than 100 µM throughout.
For `COc1ccc(C2CC3(c4ccccc4)ON=C(c4ccccc4)N3c3ccccc3S2)cc1` (stereo not given), the TGI in assay [1], in [2], in assay [3], in assay [4], in [5] and in [6] was more than 100 µM each time. The TGI in assay [7], in assay [8] and in assay [9] was more than 100 µM each time.
Regarding `CC(OC(=O)C(CC(=O)OC(C)(C)C)NC(=O)OC(C)(C)C)C(=O)OCc1ccccc1` (stereo not given), the TGI in assay [1], in assay [2], in assay [3], in [4], in assay [5] and in assay [6] was more than 100 µM each time. The TGI in assay [7], in assay [8] and in assay [9] was more than 100 µM in each case.
As to `CN1CCN(Cc2ccc(NC(=O)c3cccc(C#Cc4cnc(N)c5ncccc45)c3F)cc2C(F)(F)F)CC1`, the GI50 was 0.587 µM in [1]; 1.6 µM in assay [2]; 0.828 µM in [3]; 0.828 µM in assay [4]; 7.06 µM in assay [5]; 3.1 µM in [6]. Besides, the GI50 in assay [7] was 0.675 µM; in [9], 0.614 µM. The TGI in assay [1] was determined as 1.47 µM; in assay [2] it was 5.18 µM; in [3], 1.78 µM; in assay [4] it was 1.65 µM; in [5], 14.7 µM; in assay [6], 11 µM. Also, the TGI in [7] amounted to 1.4 µM; in [9] it was 1.41 µM.
With `CC(=O)C1=C(C)N(c2ccc(C)cc2)C2(O)C3=C(C(=O)c4ccccc4C3=O)C(O)=CC12Cl` (stereo not given), the TGI in [1] is 33.2 µM; in [2], 28.3 µM; in assay [3] it was 53.4 µM; in assay [4], 55.6 µM; in [5], 37.3 µM; in [6], 45.9 µM. The values for the TGI in [7], in assay [8] and in assay [9] were 36.5 µM, more than 100 µM and more than 100 µM, respectively.
`COc1cc2c(cc1OCCCCOc1cc3c(cc1OC)C(=O)N1CCC[C@H]1C(=O)N3)N=C[C@@H]1CCCN1C2=O`: the TGI in [1] was 3.24 µM; in assay [2], 29 µM; in [3], 27.8 µM; in assay [4], 29.3 µM; in assay [5] it was 26 µM; in [6] it was 16.8 µM. Moreover, the TGI in assay [7] amounted to 22.5 µM; in assay [8] it was 4.22 µM; in assay [9], 44.3 µM.
Take `COc1ccc2nc3ccc(OC)cc3c(SCc3ccccc3)c2c1`: the TGI in [1], in [2], in assay [3], in assay [4], in assay [5] and in assay [6] was more than 100 µM throughout. Also, the TGI in [7], in assay [8] and in assay [9] was more than 100 µM in each case.
In the case of `COC(=O)C1=C(C)C=C(N2CCOCC2)C(C(=O)OC)C1c1ccccc1` (stereo not given), the TGI in [1], in [2], in assay [3], in assay [4], in [5] and in assay [6] was more than 10 µM throughout. Further, the TGI in assay [7], in [8] and in assay [9] was more than 10 µM throughout.
With `CCOc1cc2oc(C)cc(=O)c2c(OC)c1C=Nc1ccc(Cn2c(C)nc3ccccc32)cc1`, the TGI in assay [1], in assay [2], in assay [3], in assay [4], in assay [5] and in assay [6] was more than 100 µM in each case. The TGI in [7], in assay [8] and in assay [9] was more than 100 µM each time.
